Consider 61 molecules from patent publication US7101878B1 (Agouron Pharmaceuticals, Inc., priority 1998, dated 2006).

SMILES strings stand for the structures. A value given as a limit tells only on which side of the number the result lay.

The target of one series is T1, human GnRH receptor (Homo sapiens, UniProt P30968).
T1 construct: expressed in transfected cells; host or cells: HEK 293 (hGnRH-R/293, from Dr. Stuart Sealfon)
T1 sequence (P30968 1-328): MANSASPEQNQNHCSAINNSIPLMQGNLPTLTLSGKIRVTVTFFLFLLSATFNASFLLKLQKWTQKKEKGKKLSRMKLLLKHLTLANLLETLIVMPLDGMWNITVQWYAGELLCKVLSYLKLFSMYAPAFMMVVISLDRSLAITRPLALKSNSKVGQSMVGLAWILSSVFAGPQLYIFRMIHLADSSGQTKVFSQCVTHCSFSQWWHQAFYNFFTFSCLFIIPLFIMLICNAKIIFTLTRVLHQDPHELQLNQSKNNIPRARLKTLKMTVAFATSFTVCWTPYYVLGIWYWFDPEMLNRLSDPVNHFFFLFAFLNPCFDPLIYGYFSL
Nature of the series: Radioligand binding, 125I-GnRH-A displacement, membranes of HEK 293 cells with human GnRH receptor. Particulars: binding assay conditions. A digest of the protocol:
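After filtration and PBS washes, bound radioactivity was counted by scintillation and IC50 derived. Identical conditions applied for non-human receptors.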
For the molecule `Cc1cc2c(cc1Cc1ccc(C(=O)Nc3ccccc3)o1)C(C)(C)CCC2(C)C` [Compound 195], the “insolubility remark in hGnRH IC50 cell” value is “Insol. >3 uM”.

The series is the same for the next values; noted with them: read-out: hGnRH IC50.
`N=C(N)NC[C@H]1CC[C@H](CNC(=O)c2ccc(Cc3ccccc3)o2)CC1` [Compound 34]: the IC50 is over 10000 nM. On the same count and under the same terms, in the case of `Cc1cc2c(cc1Cc1ccc(C(=O)NCC3CCN(C(=N)N)CC3)o1)C(C)(C)CCC2(C)C` [Compound 35] it was 1200 nM.

Turning to `Cc1cnc(CNC(=O)c2cccc(Cc3cc4c(cc3C)C(C)(C)CCC4(C)C)c2)cn1` [Compound 37.5], the IC50 is 7800 nM. On the same count and under the same terms, next, `CNC(=O)c1ccc(Cc2cc3c(cc2C)C(C)(C)CCC3(C)C)o1` [Compound 37]: 2100 nM. On the same count and under the same terms, next, `Cc1cc2c(cc1Cc1ccc(C(=O)N3C[C@@H]4CCCC[C@@H]4CC3C(=O)NC(C)(C)C)o1)C(C)(C)CCC2(C)C` (some centres unmarked) [Compound 38.5]: over 10000 nM; `COCCNC(=O)c1ccc(Cc2cc3c(cc2C)C(C)(C)CCC3(C)C)o1` [Compound 40]: 530 nM. Same read-out and setting: in the case of `Cc1cnc(CNC(=O)c2ccc(Cc3ccccc3)o2)cn1` [Compound 45] it was over 10000 nM; in that of `Cc1cc2c(cc1Cc1ccc(C(=O)NCc3ccc(C(C)(C)C)cc3)o1)C(C)(C)CCC2(C)C` [Compound 49], 3700 nM; in that of `Cc1cc2c(cc1Cc1ccc(C(=O)NCCc3cccc(F)c3)o1)C(C)(C)CCC2(C)C` [Compound 54], 680 nM.

With `Cc1cc2c(cc1Cc1ccc(C(=O)NCCc3ccccc3Cl)o1)C(C)(C)CCC2(C)C` [Compound 55], the IC50 amounted to 570 nM. Still for that read-out and setting: in the case of `Cc1cc2c(cc1Cc1ccc(C(=O)NC[C@H]3CCCO3)o1)C(C)(C)CCC2(C)C` [Compound 57] it was 830 nM; in that of `Cc1cc2c(cc1Cc1ccc(C(=O)NC[C@@H]3CCCO3)o1)C(C)(C)CCC2(C)C` [Compound 58], 205 nM; in that of `Cc1cc2c(cc1Cc1ccc(C(=O)NCC3CN(Cc4ccccc4)CCO3)o1)C(C)(C)CCC2(C)C` (centres unmarked) [Compound 59], 980 nM. On the same count and under the same terms, next, `Cc1cnc(CNC(=O)c2ccc(Cc3ccc4c(c3)C(C)(C)CCC4(C)C)o2)cn1` [Compound 60]: 4200 nM; `COc1cccc(C)c1NC(=O)c1ccc(Cc2cc3c(cc2C)C(C)(C)CCC3(C)C)o1` [Compound 61]: 760 nM; `Cc1cc2c(cc1Cc1ccc(C(=O)Nc3ccc(OCc4ccccc4)c(OCc4ccccc4)c3)o1)C(C)(C)CCC2(C)C` [Compound 62]: over 10000 nM. For `Cc1cc2c(cc1Cc1ccc(C(=O)NCCNc3nccc(NCC4CCCO4)n3)o1)C(C)(C)CCC2(C)C` (centres unmarked) [Compound 63], the IC50 is 2500 nM.

In the case of `Cc1cc2c(cc1Cc1ccc(C(=O)NCCSCCCc3ccc(CN(C)C)o3)o1)C(C)(C)CCC2(C)C` [Compound 65], the IC50 stood at 710 nM. Still for that read-out and setting: in the case of `Cc1cc2c(cc1Cc1ccc(C(=O)NCc3cccc(-c4ccccc4)c3)o1)C(C)(C)CCC2(C)C` [Compound 66] it was 3500 nM; in that of `Cc1cc2c(cc1Cc1ccc(C(=O)NCCCCNc3nccc(NCC4CCCO4)n3)o1)C(C)(C)CCC2(C)C` (centres unmarked) [Compound 69], 1410 nM; in that of `COc1cc(OC)nc(NCC2CCC(CNC(=O)c3ccc(Cc4cc5c(cc4C)C(C)(C)CCC5(C)C)o3)CC2)n1` (centres unmarked) [Compound 71], 2000 nM. Same read-out and setting: in the case of `Cc1cc2c(cc1Cc1ccc(C(=O)Nc3cccc(CO)c3)o1)C(C)(C)CCC2(C)C` [Compound 121] it was 1100 nM; in that of `Cc1ccc([C@H](C)NC(=O)c2ccc(Cc3cc4c(cc3C)C(C)(C)CCC4(C)C)o2)cc1` [Compound 123], 510 nM; in that of `COC(CNC(=O)c1ccc(Cc2cc3c(cc2C)C(C)(C)CCC3(C)C)o1)OC` [Compound 131], 600 nM.

With `CCCOCCNC(=O)c1ccc(Cc2cc3c(cc2C)C(C)(C)CCC3(C)C)o1` [Compound 132], the IC50 turned out to be 640 nM. Still for that read-out and setting: next, `Cc1cc2c(cc1Cc1ccc(C(=O)NCCC3OCCO3)o1)C(C)(C)CCC2(C)C` [Compound 133]: 490 nM. Take `CCN(CC)CCOC(=O)c1ccc(NC(=O)c2ccc(Cc3cc4c(cc3C)C(C)(C)CCC4(C)C)o2)cc1` [Compound 135]: the IC50 worked out at 1440 nM. Still for that read-out and setting: next, `Cc1cc2c(cc1Cc1ccc(C(=O)NCc3cccc(CNc4ncnc5scc(C)c45)c3)o1)C(C)(C)CCC2(C)C` [Compound 142]: 3000 nM. On the same count and under the same terms, in the case of `Cc1cc2c(cc1Cc1ccc(C(=O)NCc3cccc(CNc4nccc(C(F)(F)F)n4)c3)o1)C(C)(C)CCC2(C)C` [Compound 143] it was 1870 nM; in that of `Cc1cc(NCc2cccc(CNC(=O)c3ccc(Cc4cc5c(cc4C)C(C)(C)CCC5(C)C)o3)c2)nc(N)n1` [Compound 144], 230 nM; in that of `Cc1cc2c(cc1Cc1ccc(C(=O)NCc3cccc(CNc4cc(Cl)nc(N)n4)c3)o1)C(C)(C)CCC2(C)C` [Compound 145], 200 nM. Same read-out and setting: in the case of `COc1cccc(OC)c1NC(=O)c1ccc(Cc2cc3c(cc2C)C(C)(C)CCC3(C)C)s1` [Compound 146] it was over 10000 nM. Take `Cc1cc2c(cc1Cc1ccc(C(=O)NCc3cccc(CNc4ncnc5c(C)csc45)c3)o1)C(C)(C)CCC2(C)C` [Compound 149]: the IC50 was 360 nM. On the same count and under the same terms, in the case of `Cc1cc2c(cc1Cc1ccc(C(=O)NC3CCC(Nc4nccc(NCC5CCCO5)n4)CC3)o1)C(C)(C)CCC2(C)C` (centres unmarked) [Compound 152] it was 700 nM; in that of `Cc1cc2c(cc1Cc1ccc(C(=O)NCc3cccc(CNc4ncc(F)c(N)n4)c3)o1)C(C)(C)CCC2(C)C` [Compound 157], 620 nM.

As to `COC(=O)c1cc(C)nc(NCc2cccc(CNC(=O)c3ccc(Cc4cc5c(cc4C)C(C)(C)CCC5(C)C)o3)c2)n1` [Compound 158], the IC50 worked out at 1090 nM. On the same count and under the same terms, next, `COc1ccccc1NC(=O)c1ccc(Cc2cc3c(cc2C)C(C)(C)CCC3(C)C)o1` [Compound 160]: 390 nM; `CSc1ccccc1NC(=O)c1ccc(Cc2cc3c(cc2C)C(C)(C)CCC3(C)C)o1` [Compound 161]: 300 nM; `Cc1cc2c(cc1Cc1ccc(C(=O)NCC(=O)O)o1)C(C)(C)CCC2(C)C` [Compound 162]: over 10000 nM. On to `Cc1ncc(CNC(=O)c2ccc(Cc3cc4c(cc3C)C(C)(C)CCC4(C)C)o2)c(N)n1` [Compound 163], for which the IC50 was found to be 1960 nM.

As for `COC(=O)CNC(=O)c1ccc(Cc2cc3c(cc2C)C(C)(C)CCC3(C)C)o1` [Compound 164], the IC50 stood at 1970 nM. The same measure, in the same setting: next, `Cc1cc2c(cc1Cc1ccc(C(=O)NCc3ccc4c(c3)C(C)(C)CCC4(C)C)o1)C(C)(C)CCC2(C)C` [Compound 165]: over 10000 nM; `Cc1cc2c(cc1Cc1ccc(C(=O)NCc3ccc(CN(C)C)cc3)o1)C(C)(C)CCC2(C)C` [Compound 166]: 260 nM; `CNc1ccccc1NC(=O)c1ccc(Cc2cc3c(cc2C)C(C)(C)CCC3(C)C)o1` [Compound 167]: 7640 nM. Consider `COc1cc(OC)c(NC(=O)c2ccc(Cc3cc4c(cc3C(C)C)C(C)(C)CCC4(C)C)o2)c(OC)c1` [Compound 171], for which the IC50 is 1140 nM.

For the molecule `COc1cc(OC)c(CNC(=O)c2ccc(Cc3cc4c(cc3C)C(C)(C)CCC4(C)C)o2)c(OC)c1` [Compound 172], the IC50 is 3200 nM. Same read-out and setting: next, `COc1cc(OC)c([N+](=O)[O-])c(NC(=O)c2ccc(Cc3cc4c(cc3C)C(C)(C)CCC4(C)C)o2)c1[N+](=O)[O-]` [Compound 173]: 2800 nM; `Cc1cc2c(cc1Cc1ccc(C(=O)NC3O[C@H](COC(=O)C(C)(C)C)[C@H](OC(=O)C(C)(C)C)[C@H](NC(=O)C(C)(C)C)[C@H]3OC(=O)C(C)(C)C)o1)C(C)(C)CCC2(C)C` (some centres unmarked) [Compound 175]: over 10000 nM. On the same count and under the same terms, next, `Cc1cc2c(cc1Cc1ccc(C(=O)NC[C@H]3CC[C@H](CNc4ccnc(NC[C@H]5CCCO5)n4)CC3)o1)C(C)(C)CCC2(C)C` [Compound 178]: 185 nM; `COc1cc(NC(=O)c2ccc(Cc3cc4c(cc3C)C(C)(C)CCC4(C)C)o2)cc(OC)c1` [Compound 179]: 190 nM; `Cc1cc2c(cc1Cc1ccc(C(=O)NCc3cccc(CNc4ncnc5[nH]ccc45)c3)o1)C(C)(C)CCC2(C)C` [Compound 180]: 350 nM.

`COc1cc(OC)c(NC(=O)c2ccc(Cc3c(C)c(C)c4c(c3C)C=CC(C)(C)O4)o2)c(OC)c1` [Compound 184]: the IC50 turned out to be 560 nM. `COc1ccc(OC)c(Cc2ccc(C(=O)Nc3c(OC)cc(OC)cc3OC)o2)c1` [Compound 186]: the IC50 was 7310 nM.

On to `COC(=O)N1CCC(C)(C)c2cc(OC)cc(Cc3ccc(C(=O)Nc4c(OC)cc(OC)cc4OC)o3)c21` [Compound 187], for which the IC50 amounted to 9000 nM. Still for that read-out and setting: in the case of `Cc1cc2c(cc1Cc1ccc(C(=O)Nc3c(O)cccc3O)o1)C(C)(C)CCC2(C)C` [Compound 189] it was 940 nM; in that of `COc1cc(OC)c(NC(=O)c2ccc(C(=O)c3cc4c(cc3C)C(C)(C)CCC4(C)C)o2)c(OC)c1` [Compound 190], 420 nM. Still for that read-out and setting: in the case of `Cc1cc(C)c2ccc(NC(=O)c3ccc(Cc4cc5c(cc4C)C(C)(C)CCC5(C)C)o3)nc2n1` [Compound 191] it was 4240 nM; in that of `CCOc1cccc(O)c1NC(=O)c1ccc(Cc2cc3c(cc2C)C(C)(C)CCC3(C)C)o1` [Compound 192], 235 nM. Still for that read-out and setting: next, `Cc1cc2c(cc1Cc1ccc(C(=O)Nc3c(O)cccc3OC(=O)c3ccc(Cc4cc5c(cc4C)C(C)(C)CCC5(C)C)o3)o1)C(C)(C)CCC2(C)C` [Compound 193]: over 10000 nM; `Cc1cc2c(cc1Cc1ccc(C(=O)Nc3ccccc3)o1)C(C)(C)CCC2(C)C` [Compound 195]: 320 nM; `COC(CNC(=O)c1ccc(Cc2cc3c(cc2C)C(C)(C)CCC3(C)C)o1)OC` [Compound 196]: 760 nM.
